# Assay results as given in article PMC7656562 (Journal of medicinal chemistry, 2019).
# Where two headings read alike, the source gives them in different places.
# Experiments:
# hCB1 [1] = target: T1, hCB1 (Homo sapiens, UniProt P21554); assay: cell-based
# hCB1 [2] = target: T1, hCB1; details: calcium assay, basal signaling
# [3] = mouse, 0.3 mg/kg PO
# [4] = rat, 1 mg/kg PO
# [5] = system: SafetyScreen44 Panel targets
# [6] = system: alcohol-induced liver steatosis; assay: Alcohol induced hepatic steatosis study; assay type: in vivo, mouse; details: female C57BL6 mice on ethanol diet; 0.03, 0.1, 0.3 mg/kg once daily oral gavage, last 2 weeks; effect at the two higher doses; p < 0.05 versus ethanol + vehicle
# hCB1 [7] = target: T1, hCB1; details: ratio Ki hCB2/Ki hCB1
# T1 sequence (P21554 whole entry): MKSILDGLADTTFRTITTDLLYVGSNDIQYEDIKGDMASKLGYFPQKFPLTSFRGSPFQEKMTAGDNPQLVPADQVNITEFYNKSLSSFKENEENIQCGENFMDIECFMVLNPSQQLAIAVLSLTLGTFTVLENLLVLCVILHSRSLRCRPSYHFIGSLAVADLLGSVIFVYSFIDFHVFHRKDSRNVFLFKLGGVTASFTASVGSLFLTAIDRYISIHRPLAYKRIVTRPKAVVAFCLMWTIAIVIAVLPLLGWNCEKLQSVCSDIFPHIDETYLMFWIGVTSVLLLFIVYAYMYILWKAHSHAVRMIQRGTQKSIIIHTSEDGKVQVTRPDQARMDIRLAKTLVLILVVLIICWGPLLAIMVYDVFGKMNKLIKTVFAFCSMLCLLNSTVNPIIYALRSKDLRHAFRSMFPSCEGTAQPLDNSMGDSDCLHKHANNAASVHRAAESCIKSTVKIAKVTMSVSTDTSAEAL
SMILES,Kb (hCB1 [1]),other results
"CCCN(CC(F)(F)F)C(=O)NC1CCN(c2ncnc3c2nc(-c2ccccc2Cl)n3-c2ccc(Cl)cc2)CC1 [Compound 12, 1-{1-[8-(2-Chlorophenyl)-9-(4-chlorophenyl)-9H-purin-6-yl]-piperidin-4-yl}-3-propyl-3-(2,2,2-trifluoroethyl)urea]",1.2 ± 0.6 nM,–
"CC(C)(C)CNC(=O)NC1CCN(c2ncnc3c2nc(-c2ccccc2Cl)n3-c2ccc(Cl)cc2)CC1 [Compound 14, 1-{1-[8-(2-Chlorophenyl)-9-(4-chlorophenyl)-9H-purin-6-yl]-piperidin-4-yl}-3-(2,2-dimethylpropyl)urea]",270 ± 130 nM,–
"O=C(NC1CCN(c2ncnc3c2nc(-c2ccccc2Cl)n3-c2ccc(Cl)cc2)CC1)N1CCCC1 [Compound 16, N-{1-[8-(2-Chlorophenyl)-9-(4-chlorophenyl)-9H-purin-6-yl]-piperidin-4-yl}pyrrolidine-1-carboxamide]",190 ± 110 nM,–
"O=C(NC1CCN(c2ncnc3c2nc(-c2ccccc2Cl)n3-c2ccc(Cl)cc2)CC1)N1CCCCC1 [Compound 17, N-{1-[8-(2-Chlorophenyl)-9-(4-chlorophenyl)-9H-purin-6-yl]-piperidin-4-yl}piperidine-1-carboxamide]",7 ± 4 nM,–
"O=C(NC1CCN(c2ncnc3c2nc(-c2ccccc2Cl)n3-c2ccc(Cl)cc2)CC1)N1CCOCC1 [Compound 18, N-{1-[8-(2-Chlorophenyl)-9-(4-chlorophenyl)-9H-purin-6-yl]-piperidin-4-yl}morpholine-4-carboxamide]",340 ± 60 nM,–
"O=C(NC1CCN(c2ncnc3c2nc(-c2ccccc2Cl)n3-c2ccc(Cl)cc2)CC1)NC1(C(F)(F)F)CCCC1 [Compound 20, 1-{1-[8-(2-Chlorophenyl)-9-(4-chlorophenyl)-9H-purin-6-yl]-piperidin-4-yl}-3-[1-(trifluoromethyl)cyclopentyl]urea]",12 ± 8 nM,–
"O=C(NC1CCCCC1)NC1CCN(c2ncnc3c2nc(-c2ccccc2Cl)n3-c2ccc(Cl)cc2)CC1 [Compound 21, 3-{1-[8-(2-Chlorophenyl)-9-(4-chlorophenyl)-9H-purin-6-yl]-piperidin-4-yl}-1-cyclohexylurea]",35 ± 10 nM,–
"CC1(NC(=O)NC2CCN(c3ncnc4c3nc(-c3ccccc3Cl)n4-c3ccc(Cl)cc3)CC2)CCC(F)(F)CC1 [Compound 23, 3-{1-[8-(2-Chlorophenyl)-9-(4-chlorophenyl)-9H-purin-6-yl]-piperidin-4-yl}-1-(4,4-difluoro-1-methylcyclohexyl)urea]",0.4 ± 0.3 nM,–
"O=C(NCC1CCCCC1)NC1CCN(c2ncnc3c2nc(-c2ccccc2Cl)n3-c2ccc(Cl)cc2)CC1 [Compound 25, 3-{1-[8-(2-Chlorophenyl)-9-(4-chlorophenyl)-9H-purin-6-yl]-piperidin-4-yl}-1-(cyclohexylmethyl)urea]",5 ± 3 nM,–
"O=C(NCC1CCC(F)(F)CC1)NC1CCN(c2ncnc3c2nc(-c2ccccc2Cl)n3-c2ccc(Cl)cc2)CC1 [Compound 26, 3-{1-[8-(2-Chlorophenyl)-9-(4-chlorophenyl)-9H-purin-6-yl]-piperidin-4-yl}-1-[(4,4-difluorocyclohexyl)methyl]urea]",28 ± 15 nM,–
"CN1CCC(CNC(=O)NC2CCN(c3ncnc4c3nc(-c3ccccc3Cl)n4-c3ccc(Cl)cc3)CC2)CC1 [Compound 27, 3-{1-[8-(2-Chlorophenyl)-9-(4-chlorophenyl)-9H-purin-6-yl]-piperidin-4-yl}-1-[(1-methylpiperidin-4-yl)methyl]urea]",25000 ± 12000 nM,–
"O=C(Nc1ccccn1)NC1CCN(c2ncnc3c2nc(-c2ccccc2Cl)n3-c2ccc(Cl)cc2)CC1 [Compound 31, 3-{1-[8-(2-Chlorophenyl)-9-(4-chlorophenyl)-9H-purin-6-yl]-piperidin-4-yl}-1-(pyridin-2-yl)urea]",150 ± 50 nM,–
"O=C(Nc1ccc(F)cc1F)NC1CCN(c2ncnc3c2nc(-c2ccccc2Cl)n3-c2ccc(Cl)cc2)CC1 [Compound 33, 3-{1-[8-(2-Chlorophenyl)-9-(4-chlorophenyl)-9H-purin-6-yl]-piperidin-4-yl}-1-(2,4-difluorophenyl)urea]",–,neutral antagonist or inverse agonist of hCB1 (hCB1 [2]): inverse agonists; plasma HL [3]: 12 h; time of plasma max. conc. [3]: 1 h; plasma HL [4]: 12 h
"O=C(Nc1ccc(F)c(F)c1)NC1CCN(c2ncnc3c2nc(-c2ccccc2Cl)n3-c2ccc(Cl)cc2)CC1 [Compound 34, 3-{1-[8-(2-Chlorophenyl)-9-(4-chlorophenyl)-9H-purin-6-yl]-piperidin-4-yl}-1-(3,4-difluorophenyl)urea]",290 ± 80 nM,–
"O=C(Nc1cccnc1C(F)(F)F)NC1CCN(c2ncnc3c2nc(-c2ccccc2Cl)n3-c2ccc(Cl)cc2)CC1 [Compound 36, 3-{1-[8-(2-Chlorophenyl)-9-(4-chlorophenyl)-9H-purin-6-yl]-piperidin-4-yl}-1-[2-(trifluoromethyl)pyridin-3-yl]urea]",160 ± 60 nM,–
"O=C(Nc1ccc(OC(F)F)nc1)NC1CCN(c2ncnc3c2nc(-c2ccccc2Cl)n3-c2ccc(Cl)cc2)CC1 [Compound 38, 3-{1-[8-(2-Chlorophenyl)-9-(4-chlorophenyl)-9H-purin-6-yl]-piperidin-4-yl}-1-[6-(difluoromethoxy)pyridin-3-yl]urea]",–,"EC50 or IC50 on all targets tested [5]: > 10000 nM; neutral antagonist or inverse agonist of hCB1 (hCB1 [2]): inverse agonists; plasma HL [3]: 11 h; hepatic lipid droplets (Oil Red O staining, ImageJ quantification) [6]: statistically significant reduction of liver steatosis"
"O=C(Nc1cc(C(F)(F)F)[nH]n1)NC1CCN(c2ncnc3c2nc(-c2ccccc2Cl)n3-c2ccc(Cl)cc2)CC1 [Compound 39, 1-{1-[8-(2-Chlorophenyl)-9-(4-chlorophenyl)-9H-purin-6-yl]-piperidin-4-yl}-3-[5-(trifluoromethyl)-1H-pyrazol-3-yl]urea]",270 ± 60 nM,–
"Cn1cc(NC(=O)NC2CCN(c3ncnc4c3nc(-c3ccccc3Cl)n4-c3ccc(Cl)cc3)CC2)cn1 [Compound 40, 1-{1-[8-(2-Chlorophenyl)-9-(4-chlorophenyl)-9H-purin-6-yl]-piperidin-4-yl}-3-(1-methyl-1H-pyrazol-4-yl)urea]",28000 ± 8000 nM,–
"O=C(NCC1CCCCC1)NC1CCN(c2ncnc3c2nc(-c2ccccc2Cl)n3-c2ccc(C(F)(F)F)nc2)CC1 [Compound 42, 3-{1-[8-(2-Chlorophenyl)-9-[6-(trifluoromethyl)pyridin-3-yl]-9H-purin-6-yl]piperidin-4-yl}-1-(cyclohexylmethyl)urea]",76 ± 34 nM,–
"O=C(Nc1ccccc1F)NC1CCN(c2ncnc3c2nc(-c2ccccc2Cl)n3-c2ccc(F)cc2)CC1 [Compound 44, 3-{1-[8-(2-Chlorophenyl)-9-(4-fluorophenyl)-9H-purin-6-yl]-piperidin-4-yl}-1-(2-fluorophenyl)urea]",3800 ± 1500 nM,–
"CC1(NC(=O)NC2CCCCC2)CCN(c2ncnc3c2nc(-c2ccccc2Cl)n3-c2ccc(Cl)cc2)CC1 [Compound 47, 3-{1-[8-(2-Chlorophenyl)-9-(4-chlorophenyl)-9H-purin-6-yl]-4-methylpiperidin-4-yl}-1-cyclohexylurea]",7 ± 5 nM,Selectivity Ki CB2/CB1 (hCB1 [7]): >769
"CC1(NC(=O)NC2CCC(F)(F)CC2)CCN(c2ncnc3c2nc(-c2ccccc2Cl)n3-c2ccc(Cl)cc2)CC1 [Compound 48, 3-{1-[8-(2-Chlorophenyl)-9-(4-chlorophenyl)-9H-purin-6-yl]-4-methylpiperidin-4-yl}-1-(4,4-difluorocyclohexyl)urea]",2 ± 1 nM,–
"CC1(NC(=O)NCc2ccccc2F)CCN(c2ncnc3c2nc(-c2ccccc2Cl)n3-c2ccc(Cl)cc2)CC1 [Compound 49, 3-{1-[8-(2-Chlorophenyl)-9-(4-chlorophenyl)-9H-purin-6-yl]-4-methylpiperidin-4-yl}-1-[(2-fluorophenyl)methyl]urea]",14 ± 7 nM,–
"CC1(NC(=O)Nc2ccccc2F)CCN(c2ncnc3c2nc(-c2ccccc2Cl)n3-c2ccc(Cl)cc2)CC1 [Compound 50, 3-{1-[8-(2-Chlorophenyl)-9-(4-chlorophenyl)-9H-purin-6-yl]-4-methylpiperidin-4-yl}-1-(2-fluorophenyl)urea]",1.6 ± 1.1 nM,–
"CC1(NC(=O)Nc2ccc(F)cc2F)CCN(c2ncnc3c2nc(-c2ccccc2Cl)n3-c2ccc(Cl)cc2)CC1 [Compound 51, 3-{1-[8-(2-Chlorophenyl)-9-(4-chlorophenyl)-9H-purin-6-yl]-4-methylpiperidin-4-yl}-1-(2,4-difluorophenyl)urea]",9 ± 4 nM,–
"CC1(NC(=O)Nc2ccc(OC(F)F)nc2)CCN(c2ncnc3c2nc(-c2ccccc2Cl)n3-c2ccc(Cl)cc2)CC1 [Compound 52, 3-{1-[8-(2-Chlorophenyl)-9-(4-chlorophenyl)-9H-purin-6-yl]-4-methylpiperidin-4-yl}-1-[6-(difluoromethoxy)pyridin-3-yl]urea]",46 ± 23 nM,–
"CC1(NS(=O)(=O)NC2CCCCC2)CCN(c2ncnc3c2nc(-c2ccccc2Cl)n3-c2ccc(Cl)cc2)CC1 [Compound 54, N-Cyclohexyl({1-[8-(2-chlorophenyl)-9-(4-chlorophenyl)-9H-purin-6-yl]-4-methylpiperidin-4-yl}amino)sulfonamide]",17 ± 3 nM,–
